l = locked nucleic acid (LNA); d = 2'-deoxy (DNA)
Tests used:
[1] = system: RPMI-8226, KMS-12-BM and NCI-H929 MM cells; experiment: AnnexinV/7-AAD staining apoptosis after transfection; type: cell-based, Human; details: transfection with 25 nM; 48 hours
Experimental: (§1) 3×10^5 cells were transfected using Neon Transfection System (Invitrogen, Calif.,U.S.), (2 pulses at 1150, 30ms). The transfection efficiency evaluated by flow-cytometric analysis relative to a FAM dye—labeled anti-miR—negative control reached 85% to 90%.
7-aminoactinomycin was used to evaluate cell viability. The staining was performed according to manufacturer's instructions.

[2] = system: miR-17-92 primary transcript (pri-miRs) and mature miR-17-92 cluster members; experiment: q-RT-PCR of miR-17-92 member family and two pri-miRs after transfection of MM cells; type: cell-based, Human; details: 48 hours after transfection with 25 nM
Experimental: as §1
Reverse transcription (RT) of both primary and mature miRNAs was performed using TaqMan® MicroRNA Assays, following a procedure for multiplexing the RT step (Life Technologies, Publication Part Number 4465407). Briefly, 500 ng of total RNA, prepared with the TRIzol® Reagent (Invitrogen), underwent reverse transcription by the Taq-Man® MicroRNA RT Kit. In this reaction, the RT primer pool was composed by the individual RT primers for each microRNA belonging to the miR-17-92 cluster and two RT primers to allow the reverse transcription of the miR-17-92 primary miRNA. Real-time PCR was performed using TaqMan® MicroRNA Assays together with the TaqMan® Universal PCR Master Mix on an ViiA7 System (Life Technologies). Both primary and mature microRNAs expressions were relatively quantified using the 2-ΔΔCt method (Applied Biosystems User Bulletin No. 2), and expressed as the relative quantity of target miRNA normalized to the RNU44 (assay ID 001094) housekeeping gene. Comparative real-time polymerase chain reaction (RT-PCR) was performed in triplicate, including no-template controls. Relative expression was calculated using the comparative cross threshold (Ct) method.
By the use of a custom q-RT-PCR plate specifically designed by us to detect all six mature miR-17-92 members and the primary transcript by two different assays (pri-mir-17/18a/19a and pri-mir-19b1/20a/92a1), we quantified in a panel of 11 MM cell lines the levels of the different miRNAs and pri-miRs.

gapmer_06: LNA/DNA gapmer, SEQ ID 4 (14 mer): +T*+A*+C*T*T*G*C*T*T*G*G*+C*+T*+T; + LNA, * phosphorothioate (antisense TACTTGCTTGGCTT; sugars from the 5' end l3 d8 l3, all phosphorothioate, methylation of C not given here)
apoptosis (AnnexinV/7-AAD staining) [1]: increased apoptosis
downregulation of primary and mature miRNA sequences (q-RT-PCR) ([2]; NCI-H929 and RPMI-8226 cells, relative to RNase-free water): more effective gapmer to downregulate both primary and mature miRNA sequences
downregulation of pri-miRs and miR-17-92 cluster members (q-RT-PCR) ([2]; NCI-H929 cells, vs RNase-free water): induce downregulation of the two primary transcript and mature single miRNA members

Source: patent US20180051284A1, “INHIBITORS OF MIR-17-92 CLUSTER FOR ANTI-TUMOR ACTIVITY IN MULTIPLE MYELOMA AND OTHER MALIGNANCIES” (priority 2014, published 2018)
